Legend:
Coagulation factor IX = Coagulation factor IX (Homo sapiens, UniProt P00740); experiment: Binding affinity towards human factor IXa
Coagulation factor X = Coagulation factor X (Homo sapiens, UniProt P00742); experiment: Binding affinity towards human factor Xa
Coagulation factor X, sequence (P00742 41-179 limits assumed): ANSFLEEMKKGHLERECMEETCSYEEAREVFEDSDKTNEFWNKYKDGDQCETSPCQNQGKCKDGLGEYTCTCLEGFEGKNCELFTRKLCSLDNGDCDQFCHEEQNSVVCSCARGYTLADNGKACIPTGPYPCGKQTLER
Coagulation factor X, sequence (P00742 235-488 limits assumed): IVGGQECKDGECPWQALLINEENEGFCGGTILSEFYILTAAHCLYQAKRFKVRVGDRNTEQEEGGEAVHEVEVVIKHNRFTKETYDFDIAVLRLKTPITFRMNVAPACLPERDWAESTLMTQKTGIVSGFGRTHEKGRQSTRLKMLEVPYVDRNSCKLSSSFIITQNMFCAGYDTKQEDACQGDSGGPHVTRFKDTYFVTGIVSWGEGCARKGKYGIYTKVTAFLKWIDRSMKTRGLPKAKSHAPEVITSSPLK

Coagulation factor IX, sequence (P00740 47-191 limits assumed): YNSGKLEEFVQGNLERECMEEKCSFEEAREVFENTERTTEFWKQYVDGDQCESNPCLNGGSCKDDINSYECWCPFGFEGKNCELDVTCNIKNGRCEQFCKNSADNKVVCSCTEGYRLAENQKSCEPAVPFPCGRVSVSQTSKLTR
Coagulation factor IX, sequence (P00740 227-461 limits assumed): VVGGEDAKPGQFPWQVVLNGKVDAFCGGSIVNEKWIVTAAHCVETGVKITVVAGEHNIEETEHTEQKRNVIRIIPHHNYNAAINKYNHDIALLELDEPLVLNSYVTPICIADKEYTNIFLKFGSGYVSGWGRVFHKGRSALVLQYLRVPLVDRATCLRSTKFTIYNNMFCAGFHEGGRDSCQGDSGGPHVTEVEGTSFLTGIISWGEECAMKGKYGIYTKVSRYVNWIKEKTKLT

SMILES	Ki (Coagulation factor IX)	Ki (Coagulation factor X)
Cc1cc(C(=O)Nc2ccc(-c3ccccc3S(N)(=O)=O)cc2)n(-c2cccc(C(=N)N)c2)n1	1900 nM	–
N=C(N)c1cccc(-n2nc(-c3cccnc3)cc2C(=O)Nc2ccc(-n3cnc4cc(Cl)ccc43)cc2)c1	15 nM	–
N=C(N)c1cccc(-n2nc(C(F)(F)F)cc2C(=O)Nc2ccc(-n3cnc4cc(C(F)(F)F)ccc43)cc2F)c1	6.4 nM	–
N=C(N)c1cccc(-n2nc(C(F)(F)F)cc2C(=O)Nc2ccc(-n3cnc4ccc(Cl)cc43)cc2F)c1	5.1 nM	–
N=C(N)c1cccc(-n2nc(C(F)(F)F)cc2C(=O)Nc2ccc(-n3cnc4ccccc43)cc2)c1	11 nM	0.09 nM
N=C(N)c1cccc(-n2nc(Cn3ccnc3)cc2C(=O)Nc2ccc(-n3cnc4ccccc43)cc2)c1	120 nM	–
N=C(N)c1cccc(-n2nc(C(F)(F)F)cc2C(=O)Nc2ccc(-n3cnc4cc(N)ccc43)cc2F)c1	11 nM	–
N=C(N)c1cccc(-n2nc(C(F)(F)F)cc2C(=O)Nc2ccc(-n3cnc4cccnc43)cc2F)c1	13 nM	0.02 nM
N=C(N)c1cccc(-n2nc(-c3cccnc3)cc2C(=O)Nc2ccc(-n3cnc4ccccc43)cc2)c1	5.5 nM	–
N=C(N)c1cccc(-n2nc(C(F)(F)F)cc2C(=O)Nc2ccc(-n3cnc4cc(Cl)ccc43)cc2F)c1	4.2 nM	–
Cc1cc(C(=O)Nc2ccc(-n3cnc4ccccc43)cc2)n(-c2cccc(C(=N)N)c2)n1	82 nM	–
N=C(N)c1cccc(-n2nc(C(F)(F)F)cc2C(=O)Nc2ccc(-n3ccnc3)cc2)c1	72 nM	0.09 nM
N=C(N)c1cccc(-n2nc(Cn3ccnn3)cc2C(=O)Nc2ccc(-n3cnc4ccccc43)cc2)c1	20 nM	–
N=C(N)c1cccc(-n2nc(C(F)(F)F)cc2C(=O)Nc2ccc(-n3cnc4cnccc43)cc2F)c1	8 nM	0.03 nM
N=C(N)c1cccc(-n2nc(C(F)(F)F)cc2C(=O)Nc2ccc(N3C(=O)N=C4C=CC=CC43)cc2)c1 (stereo unspecified)	190 nM	0.05 nM
N=C(N)c1cccc(-n2nc(C(F)(F)F)cc2C(=O)Nc2ccc(-n3cnc4ncccc43)cc2F)c1	7.9 nM	0.02 nM
N=C(N)c1cccc(-n2nc(C(F)(F)F)cc2C(=O)Nc2ccc(-n3cnc4ccncc43)cc2F)c1	7.9 nM	0.04 nM
Cc1ccc2c(c1)ncn2-c1ccc(NC(=O)c2cc(C(F)(F)F)nn2-c2cccc(C(=N)N)c2)c(F)c1	10 nM	–
N=C(N)c1cccc(-n2nc(Cn3cnnn3)cc2C(=O)Nc2ccc(-n3cnc4ccccc43)cc2)c1	11 nM	–
N=C(N)c1cccc(-n2nc(Cn3cncn3)cc2C(=O)Nc2ccc(-n3cnc4ccccc43)cc2)c1	44 nM	0.19 nM
N=C(N)c1cccc(-n2nc(C(F)(F)F)cc2C(=O)Nc2ccc(-n3ccc4ccccc43)cc2F)c1	1700 nM	–
N=C(N)c1cccc(-n2nc(C(F)(F)F)cc2C(=O)Nc2ccc(-n3cnc4cc(Cl)c(Cl)cc43)cc2F)c1	26 nM	–
N=C(N)c1cccc(-n2nc(C(F)(F)F)cc2C(=O)Nc2ccc(-n3cnc4cc([N+](=O)[O-])ccc43)cc2F)c1	11 nM	–

Reference: ChEMBL document CHEMBL1137915, “SAR and factor IXa crystal structure of a dual inhibitor of factors IXa and Xa” (Bioorg Med Chem Lett, 2004)
